In ChEMBL document CHEMBL2380247, “Synthesis and biological evaluation of novel aliphatic amido-quaternary ammonium salts for anticancer chemotherapy: part II” (2013):
Each block holds one molecule with its values, some of them ahead of it.

What was measured:
Assay type in all cases: functional
MDA-MB-231 [1] = assay: Antiproliferative activity against human MDA-MB-231 cells at 3 uM by SRB assay
HCT-15 [2] = assay: Antiproliferative activity against human HCT15 cells at 0.1 uM by SRB assay
MDA-MB-231 [3] = assay: Antiproliferative activity against human MDA-MB-231 cells at 0.1 uM by SRB assay
HCT-15 [4] = assay: Antiproliferative activity against human HCT15 cells at 10 uM by SRB assay
HCT-15 [5] = assay: Antiproliferative activity against human HCT15 cells by SRB assay
NCI-H23 [6] = assay: Antiproliferative activity against human NCI-H23 cells at 10 uM by SRB assay
PC-3 [7] = assay: Antiproliferative activity against human PC3 cells at 0.3 uM by SRB assay
NCI-H23 [8] = assay: Antiproliferative activity against human NCI-H23 cells at 0.1 uM by SRB assay
ACHN [9] = assay: Antiproliferative activity against human ACHN cells at 0.3 uM by SRB assay
NCI-H23 [10] = assay: Antiproliferative activity against human NCI-H23 cells at 0.3 uM by SRB assay
NUGC-3 [11] = assay: Antiproliferative activity against human NUGC3 cells at 10 uM by SRB assay
MDA-MB-231 [12] = assay: Antiproliferative activity against human MDA-MB-231 cells by SRB assay
MDA-MB-231 [13] = assay: Antiproliferative activity against human MDA-MB-231 cells at 10 uM by SRB assay
HCT-15 [14] = assay: Antiproliferative activity against human HCT15 cells at 3 uM by SRB assay
PC-3 [15] = assay: Antiproliferative activity against human PC3 cells at 3 uM by SRB assay
HCT-15 [16] = assay: Antiproliferative activity against human HCT15 cells at 0.3 uM by SRB assay
PC-3 [17] = assay: Antiproliferative activity against human PC3 cells at 1 uM by SRB assay
NUGC-3 [18] = assay: Antiproliferative activity against human NUGC3 cells at 0.3 uM by SRB assay
ACHN [19] = assay: Antiproliferative activity against human ACHN cells at 3 uM by SRB assay
PC-3 [20] = assay: Antiproliferative activity against human PC3 cells by SRB assay
NUGC-3 [21] = assay: Antiproliferative activity against human NUGC3 cells at 1 uM by SRB assay
MDA-MB-231 [22] = assay: Antiproliferative activity against human MDA-MB-231 cells at 0.3 uM by SRB assay
PC-3 [23] = assay: Antiproliferative activity against human PC3 cells at 0.1 uM by SRB assay
NUGC-3 [24] = assay: Antiproliferative activity against human NUGC3 cells by SRB assay
NCI-H23 [25] = assay: Antiproliferative activity against human NCI-H23 cells at 1 uM by SRB assay
ACHN [26] = assay: Antiproliferative activity against human ACHN cells at 0.1 uM by SRB assay
NCI-H23 [27] = assay: Antiproliferative activity against human NCI-H23 cells by SRB assay
HCT-15 [28] = assay: Antiproliferative activity against human HCT15 cells at 1 uM by SRB assay
PC-3 [29] = assay: Antiproliferative activity against human PC3 cells at 10 uM by SRB assay
ACHN [30] = assay: Antiproliferative activity against human ACHN cells at 1 uM by SRB assay
ACHN [31] = assay: Antiproliferative activity against human ACHN cells at 10 uM by SRB assay
ACHN [32] = assay: Antiproliferative activity against human ACHN cells by SRB assay
NUGC-3 [33] = assay: Antiproliferative activity against human NUGC3 cells at 3 uM by SRB assay
NUGC-3 [34] = assay: Antiproliferative activity against human NUGC3 cells at 0.1 uM by SRB assay
NCI-H23 [35] = assay: Antiproliferative activity against human NCI-H23 cells at 3 uM by SRB assay
MDA-MB-231 [36] = assay: Antiproliferative activity against human MDA-MB-231 cells at 1 uM by SRB assay

- GI50 (HCT-15 [5]): > 10000 nM
- GI50 (MDA-MB-231 [12]): 2150 nM
- GI50 (PC-3 [20]): 510 nM
- GI50 (NCI-H23 [27]): 910 nM
- GI50 (ACHN [32]): 2230 nM
SMILES: CCCCCCCCCCCCCCCCCC(=O)NCC(C)(C)C[N+](C)(C)Cc1ccccc1
- growth, % of control at 3 µM (MDA-MB-231 [1]): 58.9%
- growth, % of control at 0.1 µM (HCT-15 [2]): 111%
- growth, % of control at 0.1 µM (MDA-MB-231 [3]): 95.5%
- growth, % of control at 10 µM (HCT-15 [4]): 85.2%
- growth, % of control at 10 µM (NCI-H23 [6]): -25.8%
- growth, % of control at 0.3 µM (PC-3 [7]): 95.6%
- growth, % of control at 0.1 µM (NCI-H23 [8]): 93.4%
- growth, % of control at 0.3 µM (ACHN [9]): 94%
- growth, % of control at 0.3 µM (NCI-H23 [10]): 80.7%
- growth, % of control at 10 µM (NUGC-3 [11]): -11%
- growth, % of control at 10 µM (MDA-MB-231 [13]): 20.6%
- growth, % of control at 3 µM (HCT-15 [14]): 100%
- growth, % of control at 3 µM (PC-3 [15]): -5.4%
- growth, % of control at 0.3 µM (HCT-15 [16]): 102%
- growth, % of control at 1 µM (PC-3 [17]): 38.5%
- growth, % of control at 0.3 µM (NUGC-3 [18]): 101%
- growth, % of control at 3 µM (ACHN [19]): 74.1%
- growth, % of control at 1 µM (NUGC-3 [21]): 82%
- growth, % of control at 0.3 µM (MDA-MB-231 [22]): 91.4%
- growth, % of control at 0.1 µM (PC-3 [23]): 101%
- GI50 (NUGC-3 [24]): 1320 nM
- growth, % of control at 1 µM (NCI-H23 [25]): 70.6%
- growth, % of control at 0.1 µM (ACHN [26]): 101%
- growth, % of control at 1 µM (HCT-15 [28]): 101%
- growth, % of control at 10 µM (PC-3 [29]): -38.9%
- growth, % of control at 1 µM (ACHN [30]): 87.4%
- growth, % of control at 10 µM (ACHN [31]): 0.64%
- growth, % of control at 3 µM (NUGC-3 [33]): 40.4%
- growth, % of control at 0.1 µM (NUGC-3 [34]): 96.5%
- growth, % of control at 3 µM (NCI-H23 [35]): 34.9%
- growth, % of control at 1 µM (MDA-MB-231 [36]): 86%

- GI50 (HCT-15 [5]): > 10000 nM
- GI50 (MDA-MB-231 [12]): 1350 nM
- GI50 (PC-3 [20]): 850 nM
- GI50 (NCI-H23 [27]): 1110 nM
- GI50 (ACHN [32]): 1300 nM
SMILES: CCCCCCCCCCCCCCCC(=O)N(C)CCC[N+](C)(C)Cc1ccccc1
- growth, % of control at 3 µM (MDA-MB-231 [1]): 41%
- growth, % of control at 0.1 µM (HCT-15 [2]): 91.2%
- growth, % of control at 0.1 µM (MDA-MB-231 [3]): 85.3%
- growth, % of control at 10 µM (HCT-15 [4]): 91%
- growth, % of control at 10 µM (NCI-H23 [6]): -8.96%
- growth, % of control at 0.3 µM (PC-3 [7]): 94.9%
- growth, % of control at 0.1 µM (NCI-H23 [8]): 85.2%
- growth, % of control at 0.3 µM (ACHN [9]): 90.9%
- growth, % of control at 0.3 µM (NCI-H23 [10]): 91.3%
- growth, % of control at 10 µM (NUGC-3 [11]): -29.5%
- growth, % of control at 10 µM (MDA-MB-231 [13]): 13.2%
- growth, % of control at 3 µM (HCT-15 [14]): 91.4%
- growth, % of control at 3 µM (PC-3 [15]): 24.4%
- growth, % of control at 0.3 µM (HCT-15 [16]): 96.6%
- growth, % of control at 1 µM (PC-3 [17]): 70.9%
- growth, % of control at 0.3 µM (NUGC-3 [18]): 105%
- growth, % of control at 3 µM (ACHN [19]): 47.9%
- growth, % of control at 1 µM (NUGC-3 [21]): 50.1%
- growth, % of control at 0.3 µM (MDA-MB-231 [22]): 87.3%
- growth, % of control at 0.1 µM (PC-3 [23]): 87.8%
- GI50 (NUGC-3 [24]): 520 nM
- growth, % of control at 1 µM (NCI-H23 [25]): 91.6%
- growth, % of control at 0.1 µM (ACHN [26]): 96.9%
- growth, % of control at 1 µM (HCT-15 [28]): 96.5%
- growth, % of control at 10 µM (PC-3 [29]): 4.74%
- growth, % of control at 1 µM (ACHN [30]): 79.6%
- growth, % of control at 10 µM (ACHN [31]): -10.8%
- growth, % of control at 3 µM (NUGC-3 [33]): -9.77%
- growth, % of control at 0.1 µM (NUGC-3 [34]): 110%
- growth, % of control at 3 µM (NCI-H23 [35]): 25%
- growth, % of control at 1 µM (MDA-MB-231 [36]): 87.3%

- GI50 (HCT-15 [5]): 4330 nM
- GI50 (MDA-MB-231 [12]): 360 nM
- GI50 (PC-3 [20]): 260 nM
- GI50 (NCI-H23 [27]): 280 nM
- GI50 (ACHN [32]): 230 nM
SMILES: CCCCCCCCCCCCCC(=O)N(C)CC[N+](CC)(CC)CC
- growth, % of control at 3 µM (MDA-MB-231 [1]): 11.3%
- growth, % of control at 0.1 µM (HCT-15 [2]): 90.7%
- growth, % of control at 0.1 µM (MDA-MB-231 [3]): 92.9%
- growth, % of control at 10 µM (HCT-15 [4]): 43.1%
- growth, % of control at 10 µM (NCI-H23 [6]): -7.7%
- growth, % of control at 0.3 µM (PC-3 [7]): 84.7%
- growth, % of control at 0.1 µM (NCI-H23 [8]): 83.6%
- growth, % of control at 0.3 µM (ACHN [9]): 63.2%
- growth, % of control at 0.3 µM (NCI-H23 [10]): 76.2%
- growth, % of control at 10 µM (NUGC-3 [11]): -7.5%
- growth, % of control at 10 µM (MDA-MB-231 [13]): -8%
- growth, % of control at 3 µM (HCT-15 [14]): 79.2%
- growth, % of control at 3 µM (PC-3 [15]): -7.5%
- growth, % of control at 1 µM (PC-3 [17]): 11.7%
- growth, % of control at 0.3 µM (NUGC-3 [18]): 56.2%
- growth, % of control at 3 µM (ACHN [19]): 9.4%
- growth, % of control at 1 µM (NUGC-3 [21]): 3%
- growth, % of control at 0.3 µM (MDA-MB-231 [22]): 86.6%
- growth, % of control at 0.1 µM (PC-3 [23]): 95.7%
- GI50 (NUGC-3 [24]): 160 nM
- growth, % of control at 1 µM (NCI-H23 [25]): 29%
- growth, % of control at 0.1 µM (ACHN [26]): 103%
- growth, % of control at 1 µM (HCT-15 [28]): 88%
- growth, % of control at 10 µM (PC-3 [29]): -22.4%
- growth, % of control at 1 µM (ACHN [30]): 24.1%
- growth, % of control at 10 µM (ACHN [31]): -15.5%
- growth, % of control at 3 µM (NUGC-3 [33]): -4.9%
- growth, % of control at 0.1 µM (NUGC-3 [34]): 96.3%
- growth, % of control at 3 µM (NCI-H23 [35]): 3.7%
- growth, % of control at 1 µM (MDA-MB-231 [36]): 33.2%

- GI50 (PC-3 [20]): 440 nM
SMILES: CCCCCCCCCCCCCCCCCCOP(=O)([O-])OC1CC[N+](C)(C)CC1 [PERIFOSINE]
- GI50 (NUGC-3 [24]): 540 nM
